Experiments:
[1] = Binding affinity to 18S RNA by surface plasmon resonance
[2] = Binding affinity to 16S RNA by surface plasmon resonance
[3] = Ratio of Kd for 18S RNA to Kd for 16S RNA
[4] = Binding affinity to trans-activation response RNA by surface plasmon resonance

| Structure (SMILES) | Kd [1] [µM] | Kd [2] [µM] | Ratio [3] | Kd [4] [µM] |
| --- | --- | --- | --- | --- |
| NCCN(CC(=O)NCCN[C@H]1[C@@H](O)[C@H](N)C[C@H](N)[C@H]1O[C@H]1O[C@H](CN)[C@@H](O)[C@H](O)[C@H]1N)C(=O)Cn1cnc2c(N)ncnc21 | 12 | 16 | 0.75 | 12 |
| Cc1cn([C@H]2C[C@H](OP(=O)(O)OC[C@H]3O[C@@H](n4cc(C)c(=O)[nH]c4=O)C[C@@H]3O)[C@@H](C(=O)NCCN[C@H]3[C@@H](O)[C@H](N)C[C@H](N)[C@H]3O[C@H]3O[C@H](CN)[C@@H](O)[C@H](O)[C@H]3N)O2)c(=O)[nH]c1=O | 548 | 304 | 1.8 | 634 |
| Cc1cn([C@H]2C[C@H](O)[C@@H](COP(=O)(O)O[C@H]3C[C@H](n4ccc(=O)[nH]c4=O)O[C@@H]3C(=O)NCCN[C@H]3[C@@H](O)[C@H](N)C[C@H](N)[C@H]3O[C@H]3O[C@H](CN)[C@@H](O)[C@H](O)[C@H]3N)O2)c(=O)[nH]c1=O | 1210 | 352 | 3.45 | 1000 |
| Cc1cn(CC(=O)N(CCNC(=O)CN(CCN)C(=O)Cn2ccc(=O)[nH]c2=O)CC(=O)NCCN[C@H]2[C@@H](O)[C@H](N)C[C@H](N)[C@H]2O[C@H]2O[C@H](CN)[C@@H](O)[C@H](O)[C@H]2N)c(=O)[nH]c1=O | 20 | 11 | 1.81 | 6 |
| Cc1cn([C@H]2C[C@H](OP(=O)(O)OC[C@H]3O[C@@H](n4ccc(=O)[nH]c4=O)C[C@@H]3O)[C@@H](C(=O)NCCN[C@H]3[C@@H](O)[C@H](N)C[C@H](N)[C@H]3O[C@H]3O[C@H](CN)[C@@H](O)[C@H](O)[C@H]3N)O2)c(=O)[nH]c1=O | 479 | 227 | 2.11 | 476 |
| Cc1cn([C@H]2C[C@H](OP(=O)(O)OC[C@H]3O[C@@H](n4cc(C)c(=O)[nH]c4=O)C[C@@H]3O)[C@@H](C(=O)NCCCCCCN[C@H]3[C@@H](O)[C@H](N)C[C@H](N)[C@H]3O[C@H]3O[C@H](CN)[C@@H](O)[C@H](O)[C@H]3N)O2)c(=O)[nH]c1=O | 266 | 208 | 1.28 | 115 |
| Cc1cn(CC(=O)N(CCN)CC(=O)NCCN[C@H]2[C@@H](O)[C@H](N)C[C@H](N)[C@H]2O[C@H]2O[C@H](CN)[C@@H](O)[C@H](O)[C@H]2N)c(=O)[nH]c1=O | 11 | 8 | 1.38 | 10 |
| Cc1cn(CC(=O)N(CCN)CC(=O)NCCN(CC(=O)NCCN[C@H]2[C@@H](O)[C@H](N)C[C@H](N)[C@H]2O[C@H]2O[C@H](CN)[C@@H](O)[C@H](O)[C@H]2N)C(=O)Cn2cc(C)c(=O)[nH]c2=O)c(=O)[nH]c1=O | 10 | 9 | 1.11 | 5 |
| Cc1cn([C@H]2C[C@H](OP(=O)(O)OC[C@H]3O[C@@H](n4cc(C)c(=O)[nH]c4=O)C[C@@H]3O)[C@@H](C(=O)NCCCN[C@H]3[C@@H](O)[C@H](N)C[C@H](N)[C@H]3O[C@H]3O[C@H](CN)[C@@H](O)[C@H](O)[C@H]3N)O2)c(=O)[nH]c1=O | 555 | 316 | 1.76 | 533 |
| Cc1cn(CC(=O)N(CCN)CC(=O)NCCN(CC(=O)NCCN[C@H]2[C@@H](O)[C@H](N)C[C@H](N)[C@H]2O[C@H]2O[C@H](CN)[C@@H](O)[C@H](O)[C@H]2N)C(=O)Cn2ccc(=O)[nH]c2=O)c(=O)[nH]c1=O | 25 | 12 | 2.08 | 8 |
| NC[C@H]1O[C@H](O[C@H]2[C@@H](NCCNC(=O)[C@H]3O[C@@H](n4ccc(=O)[nH]c4=O)C[C@@H]3OP(=O)(O)OC[C@H]3O[C@@H](n4ccc(=O)[nH]c4=O)C[C@@H]3O)[C@@H](O)[C@H](N)C[C@@H]2N)[C@H](N)[C@@H](O)[C@@H]1O | 404 | 180 | 2.24 | 417 |
| NCCN(CC(=O)NCCN(CC(=O)NCCN[C@H]1[C@@H](O)[C@H](N)C[C@H](N)[C@H]1O[C@H]1O[C@H](CN)[C@@H](O)[C@H](O)[C@H]1N)C(=O)Cn1ccc(=O)[nH]c1=O)C(=O)Cn1ccc(=O)[nH]c1=O | 35 | 17 | 2.06 | 11 |
| NCCN(CC(=O)NCCN[C@H]1[C@@H](O)[C@H](N)C[C@H](N)[C@H]1O[C@H]1O[C@H](CN)[C@@H](O)[C@H](O)[C@H]1N)C(=O)Cn1ccc(=O)[nH]c1=O | 17 | 14 | 1.21 | 24 |
| NC[C@H]1O[C@H](O[C@H]2[C@H](O)[C@@H](O)[C@H](N)C[C@@H]2N)[C@H](N)[C@@H](O)[C@@H]1O [NEAMINE] | 26 | 11 | 2.36 | 11 |

From ChEMBL document CHEMBL1142479, “Studies on the synthesis of neamine-dinucleosides and neamine-PNA conjugates and their interaction with RNA” (Bioorg Med Chem Lett, 2008)
